The compounds below were run on Human dermal fibroblasts (assay: Stimulation of collagen synthesis in human dermal fibroblasts, procollagen type I C-peptide (PIP) EIA). Settings: compound at 0.0005% in DMSO, triplicate, 48-hour incubation; procollagen type I C-peptide in conditioned medium; increase in collagen over DMSO control.
Format: cell-based
Experimental: The compounds 1-5, and 8-9 were assayed for stimulation of collagen synthesis as follows. Human dermal fibroblasts (Cascade Biologics, Portland, Oreg.) were plated at 10,000 cells/well in 96-well culture plates in supplemented medium (DMEM, 10% Fetal Bovine Serum, 1% Penicillin/Streptomycin and 1% L-Glutamine) overnight in humidified atmosphere of 10% CO2 at 37° C. The next day, the medium was replaced with fresh medium (DMEM, 1% Penicillin/Streptomycin and 1% L-Glutamine) and the compounds dissolved DMSO were added to the wells in triplicate at a concentration of 0.0005%, DMSO solution was used a control. Following 48-hour incubation, the plates were removed from the incubator and the medium from each well was collected for the procollagen assay.
Collagen production was measured using procollagen type I C-peptide (PIP) EIA kit (Takara Bio, Inc., Japan). Briefly, the conditioned medium was diluted 1:10 in Sample Diluent, 20 μl of diluted conditioned medium and 100 μl of antibody-POD conjugate solution were added to the wells of the Takara HASA plate. The ELISA plate was incubated at 37° C. for 3 hours before the wells were washed four times with 400 μl of 1×PBS. At the end of wash, 100 μl of substrate solution (supplied with kit) was added to the wells and incubated at room temperature for 15 minutes. The reaction was stopped by adding 100 μl of 1N sulfuric acid to the wells. The absorbance was measured on a spectrophotometer at 450 nm wavelength. The amount of procollagen peptide in the conditioned medium was calculated from the standard curve. The stimulation of collagen production was shown as an increase in collagen over the control.

SMILES	% Collagen Stimulation [%]
Cc1c(C(=O)N2CCCC2)cnn1-c1ccccc1 [Compound 4]	12.5
Cc1ccccc1N1CCN(C(=O)c2cc(-c3cccn3C)nn2-c2ccccc2Cl)CC1 [Compound 9]	62.2
CCc1c(C(=O)N2CCCC2)cnn1-c1ccccc1Cl [Compound 1]	73.2
Cc1c(C(=O)N2CCCC2)c(CC(C)C)nn1-c1ccccc1 [Compound 2]	23.1
Cc1ccccc1N1CCN(C(=O)c2cc(-c3ccccc3)nn2-c2ccc(Cl)c(Cl)c2)CC1 [Compound 8]	83.7
CCCc1c(C(=O)N2CCCC2)cnn1-c1ccccc1C [Compound 5]	45.23
CCCc1c(C(=O)N2CCOCC2)cnn1-c1ccccc1Cl [Compound 3]	13.5
